From US20030143282A1, “Adenosine A3 receptor agonist” (priority 2002, published 2003)

Tests used:
[1] = Myeloprotective effect in mice treated with cyclophosphamide; assay type: in vivo; settings: adenosine administered orally or intraperitoneally, after cyclophosphamide
Protocol: The myeloprotective effect of the various preparations were examined by injecting mice intraperitoneally with 50 mg/kg body weight of cyclophosphamide. Each group contained 10 mice and experiments were repeated at least 4 times. Adenosine, MCM (4 activity units) or MCM+ADA (4 activity units) were each orally administered 48 h and 72 h following the chemotherapy. After 120 h blood samples were withdrawn. The number of leukocytes and percent of neutrophils were evaluated.

B16-F10 melanoma cells = assay: Melanoma lung metastatic foci growth in mice inoculated with B16-F10 cells; assay type: in vivo, C57BL/6J mice; settings: adenosine 268 μg/kg body weight, administered orally or intraperitoneally
Protocol: The B-16-F10 murine melanoma cell line was used in the in vitro and in vivo experiments. Cells were maintained in RPMI medium containing 10% FBS, penicillin and streptomycin. They were transferred twice weekly to a freshly prepared medium. To examine the effect of the different preparations on tumor cell growth, B16-F10 (2.5×10^5) melanoma cells were intravenously inoculated to C57BL/6J mice. Each group contained 20 mice and experiments were repeated at least 4 times. Mice were treated orally according to the following protocol starting one day after tumor inoculation: 1. Adenosine—268 μg/kg body weight 2. MCM 4AU twice daily. 3. MCM+ADA, 4AU twice daily. 4. Vehicle—twice daily. An additional group of mice was treated daily intraperitoneally with adenosine (268 μg/kg body weight). Mice were sacrificed after fifteen days, lungs removed and black metastatic foci were counted using a Dissecting Microscope.

B-16-F10 melanoma cells = assay: [3H]-thymidine incorporation assay, tumor cell proliferation; assay type: cell-based, murine; settings: B16-F10 cells; 0.1, 0.05 and 0.001 μM
Protocol: The B-16-F10 murine melanoma cell line was used in the in vitro and in vivo experiments. Cells were maintained in RPMI medium containing 10% FBS, penicillin and streptomycin. They were transferred twice weekly to a freshly prepared medium.
(§1) [^3H]-tymidine incorporation assay was used to evaluate cell growth. 1.5×10^4/ml B-16-F10 melanoma or 3×10^5/ml bone marrow cells were cultured in RPMI medium containing 10% FBS in 96 well microtiter plates. These cultures were incubated in the presence of MCM in a concentration of 50%. Since MCM was prepared in PBS, cultures containing tumor or bone marrow cells suspended in 50% PBS served as controls. During the last 18 hours of incubation, each well was pulsed with 1 μCi [^3H]-thymnidine. The cells were harvested and the [^3H]-thymnidine uptake was determined in an LKB liquid scintillation counter (LKB, Piscataway, N.J., USA).
(§2) Results were expressed as % of cell proliferation inhibition or stimulation, calculated according to the following formula: [formula]
where A represents the cell count of sample and B represents the cell count of the control. According to this calculation control values are 0% of inhibition or stimulation. […]
(§3) In this set of experiments, the question whether the effect of MCM+ADA on tumor or normal cells was mediated through A3AR was examined. […] [^3H]-thymidine uptake was determined as described above.

bone marrow cells = assay: [3H]-thymidine incorporation assay, bone marrow cell proliferation; assay type: cell-based, C57BL/6J mice; settings: 0.1, 0.05 and 0.001 μM
Protocol: Bone marrow cells were obtained from the femur of C57BL/6J mice. Cells were disaggregated by passing through a 25 G needle.
as §1, §2
where A represents the cell count of sample and B represents the cell count of the control. According to this calculation control values are 0% of inhibition or stimulation.
To eliminate adenosine from MCM preparations, adenosine deaminase (ADA) (Sigma, Chemical Co. St. Louis, Mo., USA) was added to the MCM for 1 hour. […]
as §3

SMILES | chemoprotective effect [1] | inhibition of tumor growth (B16-F10 melanoma cells) | effect of MRS-1220 by itself on proliferation (B-16-F10 melanoma cells) | effect of MRS-1220 by itself on proliferation (bone marrow cells)
Nc1ncnc2c1ncn2[C@@H]1O[C@H](CO)[C@@H](O)[C@H]1O [Adenosine, adenosine] | failed to inhibit tumor growth or act as a chemoprotective agent | failed to inhibit tumor growth |  | 
O=C(Cc1ccccc1)Nc1nc2ccc(Cl)cc2c2nc(-c3ccco3)nn12 [MRS-1220, 9-chloro-2-(2-furanyl)-5-[(phenylacetyl)amino] [1,2,4,]-triazolo[1,5-c] quinazoline] |  |  | no effect | no effect
